From US20230135894A1, “MK2 DEGRADERS AND USES THEREOF” (Kymera Therapeutics, Inc., priority 2021, published 2023)

Experiments:
MK2 [1] = biological target: T1, MK2 (Homo sapiens, UniProt P49137); experiment: MK2 degradation in human THP-1 monocytic cells (MSD, 24 h); type: cell-based; parameters: endogenous in cells; key to MK2 MSD THP-1 degradation 24 h GMean External Abs DC50: A (<0.001 μM); B (0.001-0.01 μM); C (0.01-0.1 μM); D (>0.1 μM); —: “-”=not tested or inactive; details: for Dmax: THP-1, THP-1 cells; for DC50: read-out: MK2 MSD THP-1 degradation 24 h GMean External Abs DC50
T1 sequence (P49137 whole entry): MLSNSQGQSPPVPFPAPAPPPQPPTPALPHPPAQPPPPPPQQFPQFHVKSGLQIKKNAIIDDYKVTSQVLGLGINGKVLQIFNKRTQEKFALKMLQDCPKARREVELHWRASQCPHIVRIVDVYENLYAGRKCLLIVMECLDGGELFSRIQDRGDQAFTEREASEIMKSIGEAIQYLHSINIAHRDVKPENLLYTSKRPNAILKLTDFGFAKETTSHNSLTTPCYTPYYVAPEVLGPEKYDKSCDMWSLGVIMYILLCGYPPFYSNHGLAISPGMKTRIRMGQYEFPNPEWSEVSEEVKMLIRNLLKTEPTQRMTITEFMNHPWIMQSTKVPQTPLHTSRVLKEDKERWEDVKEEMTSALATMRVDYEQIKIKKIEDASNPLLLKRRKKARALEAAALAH
Description: MK2 Degradation in Human THP-1 Monoctyic Cells
(§1) The human monocytic cancer cell line THP-1 (ATCC (TIB-202)) was cultured in 96 well plates (Corning 3894) at a density of 200,000 cells per well in 100 microlitres in complete growth medium of RPMI 1640 (Gibco) pus 10% fetal Bovine Serum (Corning) and Penicillin/Streptomycin (SolarBio) at 37 degrees Celsius and 5% CO2. A serial dilution of each compound (usually 3 to 5 fold serial dilutions up to 10 separate concentration points) was added to individual wells from a 10 millimolar stock solution, at a background concentration of 0.1% DMSO and the cells were shaken at 600 rpm for 5 minutes and then were cultured for 24 hours at 37 degrees Celsius and 5% carbon dioxide. Separately, a custom MSD (MesoScaleDiscovery, L15XA-3) plate for detection of human MK2 was prepared by coating the plate with the commercial AbCam ab247272 reagent in 1×Phosphate Buffered Saline at 40 microlitres per well and incubated at 4 degrees Celsius overnight. The next day, the MSD plate was washed with 150 microlitres of Tween buffered saline, blocked with MSD blocking buffer (3% Blocker A from MSD), and washed again.
(§2) The cell plate was centrifuged at 3,200 g for 5 minutes and the supernatant was discarded and 100 microlitres of RIPA lysis buffer (containing proteinase inhibitors, Boston BioProducts BP-115D) was added and the plate was sealed and shaken on ice for 20 minutes. The plate was centrifuged as before and 70 microlitres of sample lysate was added to the MSD plates and they were shaken at room temperature for 1 hour at 600 rpm. The MSD plate was washed 3 times as before and then the primary MK2 detection antibody (Santa Cruz sc-100393) was added at a final concentration of 1 microgram per ml at 25 microlitres per well and shaken at room temperature for 1 hour at 600 rpm.
(§3) After 3 more washes, the secondary detection antibody (SULFO-Tag anti rabbit antibody R32AB-5) was added at a final concentration of 1 microgram per ml at 25 microlitres per well and shaken at room temperature for 1 hour at 600 rpm. After 3 more washes, the 1×MSD (diluted from 5× concentrate with water) reading buffer was added at 150 microlitres per well and read on the MSD instrument Meso Sector S 600.
(§4) The inhibition/degradation curves and DC50 values were plotted and calculated using XL Fit (version v5.3.1.3) using equation 201 and a 4 parameter logistic model whereby fit=(A+((B−A)/(1+((x/C)D))) where A is the Bottom and B is the Top and C is the IC50 and D is the slope and high C is the signal for the DMSO treated cells and Low C is the signal is the signal for the lysis buffer.

MK2 [2] = biological target: T1, MK2; experiment: MK2 degradation in human SW1353 cells (MSD, 24 h); type: cell-based; parameters: endogenous in cells; host or cells: SW-1353 (ATCC HTB-94); key to MK2 MSD SW1353 degradation 24 h GMean External Abs DC50: A (<0.001 μM); B (0.001-0.01 μM); C (0.01-0.1 μM); D (>0.1 μM); —: “-”=not tested or inactive; key to MK2 MSD SW 1353 24 h Dmax %: —: “-”=not tested or inactive; details: for DC50: read-out: MK2 MSD SW1353 degradation 24 h GMean External Abs DC50; for Dmax: read-out: MK2 MSD SW 1353 24 h Dmax %
Description: MK2 Degradation in Human SW1353 Cells
as §1, with “chondrocyte” for “monocytic”, “SW-1353 (ATCC(HTB-94))” for “THP-1 (ATCC (TIB-202))”, “Leibovitz's L-15 Medium” for “RPMI 1640”, “Celsius.” for “Celsius and 5% CO2.”, “Celsius.” for “Celsius and 5% carbon dioxide.”
as §2, §3, §4

Dmax (MK2 [1]) | DC50 (MK2 [1]; THP-1 cells) | DC50 (MK2 [2]) | Dmax (MK2 [2]) | MK2 MSD THP-1 degradation 24 h GMean External Abs DC50 (MK2 [1]; THP-1 cells) | MK2 MSD SW1353 degradation 24 h GMean External Abs DC50 (MK2 [2]) | SMILES | MK2 MSD SW 1353 24 h Dmax % (MK2 [2])
> 75% | 1 to 10 nM | 1 to 10 nM | > 75% |  |  | C[C@@H]1CNc2c(sc3ccc4nc(-c5cccc(N6CCC(CN7CCN(c8ccc9c(c8)CN(C8CCC(=O)NC8=O)C9=O)CC7)CC6)c5)ccc4c23)C(=O)N1 (stereo partly drawn) [Compound I-304] | 
> 75% | < 1 nM | < 1 nM | > 75% |  |  | C[C@@H]1CNc2c(sc3ccc4nc(-c5cccc(N6CCN(C(=O)COCCOCCc7cccc8c7n(C)c(=O)n8C7CCC(=O)NC7=O)CC6)c5)ccc4c23)C(=O)N1 (stereo partly drawn) [Compound I-34] | 
> 75% | < 1 nM | 1 to 10 nM | > 75% |  |  | C[C@@H]1CNc2c(sc3ccc4nc(-c5cccc(N6CCN(CC7CCN(c8ccc9c(c8)CN(C8CCC(=O)NC8=O)C9=O)CC7)CC6)c5)ccc4c23)C(=O)N1 (stereo partly drawn) [Compound I-303] | 
> 75% | 1 to 10 nM | 1 to 10 nM | > 75% |  |  | C[C@@H]1CN(C)c2c(sc3ccc4nc(-c5ccc(N6CCN(CC7CCN(c8ccc9c(c8)n(C)c(=O)n9C8CCC(=O)NC8=O)CC7)CC6)nc5)ccc4c23)C(=O)N1 (stereo partly drawn) [Compound I-268] | 
> 75% | 1 to 10 nM | < 1 nM | > 75% |  |  | Cn1c(=O)n(C2CCC(=O)NC2=O)c2ccc(N3CCC(CN4CCN(c5ccc(-c6nccc(-c7cc8c([nH]7)C7(CC7)CNC8=O)n6)cc5)CC4)CC3)cc21 (stereo not drawn) [Compound I-428] | 
< 50% | > 100 nM | > 100 nM | < 50% |  |  | Cn1c(=O)n(C2CCC(=O)NC2=O)c2cccc(CCCCCCCN3CCN(c4ccc(F)c(-c5cc(-c6cc7c([nH]6)CCNC7=O)ccn5)c4)CC3)c21 (stereo not drawn) [Compound I-135] | 
> 75% | < 1 nM | 1 to 10 nM | > 75% |  |  | C[C@@H]1CNc2c(sc3ccc4nc(-c5cncc(C6CCN(CCCCCCCCc7cccc8c7n(C)c(=O)n8C7CCC(=O)NC7=O)CC6)c5)ccc4c23)C(=O)N1 (stereo partly drawn) [Compound I-103] | 
< 50% | > 100 nM | > 100 nM | < 50% |  |  | C[C@@H]1CNc2c(sc3ccc4nc(N5CCCN(CC6CCN(c7ccc8c(c7)n(C)c(=O)n8C7CCC(=O)NC7=O)CC6)CC5)ccc4c23)C(=O)N1 (stereo partly drawn) [Compound I-446] | 
< 50% | > 100 nM | > 100 nM | < 50% |  |  | Cn1c(=O)n(C2CCC(=O)NC2=O)c2ccc(CCCCCCN3CC4(CCN(c5ccc6c(c5)Cn5cc(-c7ccc(F)cc7)cc5-c5nccn5-6)C4)C3)cc21 (stereo not drawn) [Compound I-168] | 
> 75% | 1 to 10 nM | 1 to 10 nM | > 75% |  |  | Cn1c(=O)n(C2CCC(=O)NC2=O)c2cccc(N3CCC(CN4CCN(c5ccc(-c6cc(-c7cc8c([nH]7)CCNC8=O)ccn6)cc5)CC4)CC3)c21 (stereo not drawn) [Compound I-120] | 
> 75% | 1 to 10 nM | 1 to 10 nM | > 75% |  |  | C[C@@H]1CNc2c(sc3ccc4nc(-c5cc(N6CCC(CN7CCN(c8cccc9c8n(C)c(=O)n9C8CCC(=O)NC8=O)CC7)CC6)ccc5F)ccc4c23)C(=O)N1 (stereo partly drawn) [Compound I-285] | 
> 75% |  |  | > 75% | — | — | C[C@@H]1CNc2c(sc3ccc4nc(N5CCC6(CC5)CC(N5CCN(c7ccc8c(c7)n(C)c(=O)n8C7CCC(=O)NC7=O)CC5)C6)ccc4c23)C(=O)N1 (stereo partly drawn) [Compound I-185] | 
50 to 75% | 1 to 10 nM | < 1 nM | > 75% |  |  | C[C@@H]1CNc2c(sc3ccc4nc(-c5ccc(N6CCN(C[C@@H]7CCN(c8ccc9c(c8)n(C)c(=O)n9C8CCC(=O)NC8=O)C7)CC6)cc5)ccc4c23)C(=O)N1 (stereo partly drawn) [Compound I-214] | 
50 to 75% | 1 to 10 nM | 1 to 10 nM | > 75% |  |  | C[C@@H]1CNc2c(sc3ccc4nc(-c5cccc(N6CCN(CCCCCCCCc7ccc8c(c7)n(C)c(=O)n8C7CCC(=O)NC7=O)CC6)c5)ccc4c23)C(=O)N1 (stereo partly drawn) [Compound I-176] | 
> 75% | 1 to 10 nM | 1 to 10 nM | > 75% |  |  | C[C@@H]1CNc2c(sc3ccc4nc(-c5ccnc(N6CCN(CC7CCN(c8cccc9c8n(C)c(=O)n9C8CCC(=O)NC8=O)CC7)CC6)c5)ccc4c23)C(=O)N1 (stereo partly drawn) [Compound I-276] | 
> 75% | 1 to 10 nM |  | > 75% |  | — | Cn1c(=O)n(C2CCC(=O)NC2=O)c2cccc(CCCN3CCN(c4ccc(-c5cc(-c6cc7c([nH]6)C6(CC6)CNC7=O)ccn5)cn4)CC3)c21 (stereo not drawn) [Compound I-199] | 
> 75% | 1 to 10 nM | < 1 nM | > 75% |  |  | C[C@@H]1CNc2c(sc3ccc4nc(N5CCC(N6CCC7(CCN(c8ccc9c(c8)n(C)c(=O)n9C8CCC(=O)NC8=O)CC7)CC6)CC5)ccc4c23)C(=O)N1 (stereo partly drawn) [Compound I-395] | 
< 50% | > 100 nM | > 100 nM | < 50% |  |  | C[C@@H]1CN(C)c2c(sc3ccc4nc(-c5cccc(N6CCC(CN7CCN(c8cccc9c(N%10CCC(=O)NC%10=O)cncc89)CC7)CC6)c5)ccc4c23)C(=O)N1 [Compound I-267] | 
< 50% | > 100 nM |  |  |  | — | Cn1c(=O)n(C2CCC(=O)NC2=O)c2ccc(CCN3CCN(c4ccc(-c5cc(-c6cc7c([nH]6)C6(CC6)CNC7=O)ccn5)cc4)CC3)cc21 (stereo not drawn) [Compound I-202] | —
< 50% | > 100 nM | > 100 nM | < 50% |  |  | Cc1cc(N2CCN(CC3CCN(c4ccc5c(c4)n(C)c(=O)n5C4CCC(=O)NC4=O)CC3)CC2)ccc1-c1cc(-c2cc3c([nH]2)CCNC3=O)ccn1 (stereo not drawn) [Compound I-229] | 
> 75% | < 1 nM | < 1 nM | > 75% |  |  | Cc1cc(N2CCC(CN3CCC(c4ccc5c(c4)n(C)c(=O)n5C4CCC(=O)NC4=O)CC3)CC2)ccc1-c1ccc2c(ccc3sc4c(c32)NC[C@@H](C)NC4=O)n1 (stereo partly drawn) [Compound I-291] | 
> 75% | 1 to 10 nM | 1 to 10 nM | > 75% |  |  | C[C@@H]1CNc2c(sc3ccc4nc(N5CCN(CC6CCN(c7ccc8c(c7)n(C)c(=O)n8C7CCC(=O)NC7=O)CC6)CC5)ccc4c23)C(=O)N1 (stereo partly drawn) [Compound I-265] | 

SMILES | Dmax (MK2 [1]) | DC50 (MK2 [1]; THP-1 cells) | DC50 (MK2 [2]) | Dmax (MK2 [2]) | MK2 MSD THP-1 degradation 24 h GMean External Abs DC50 (MK2 [1]; THP-1 cells) | MK2 MSD SW1353 degradation 24 h GMean External Abs DC50 (MK2 [2]) | MK2 MSD SW 1353 24 h Dmax % (MK2 [2])
C[C@@H]1CNc2c(sc3ccc4nc(N5C6CCC5CN(CC5CCN(c7cccc8c7n(C)c(=O)n8C7CCC(=O)NC7=O)CC5)C6)ccc4c23)C(=O)N1 (stereo partly drawn) [Compound I-435] | < 50% | > 100 nM | > 100 nM |  |  |  | —
C[C@@H]1CNc2c(sc3ccc4nc(N5CC6CCC(C5)N6CC5CCN(c6cccc7c6n(C)c(=O)n7C6CCC(=O)NC6=O)CC5)ccc4c23)C(=O)N1 (stereo partly drawn) [Compound I-436] | < 50% | > 100 nM | > 100 nM |  |  |  | —
